# Test results taken from patent publication US8258169B2, “Pyrazole-4-N-alkoxycarboxamides as microbiocides” (Syngenta Crop Protection, LLC, priority 2008, dated 2012).
row,melting point,SMILES
1,111 to 114 °C,"CCON(C(=O)c1cn(C)nc1C(F)F)C(C)Cc1c(Cl)cc(Cl)cc1Cl (centres unmarked) [Compound 1.032, 3-difluoromethyl-1-methyl-1H-pyrazole-4-carboxylic acid ethoxy-[1-methyl-2-(2,4,6-trichlorophenyl)-ethyl]-amide]"
2,95 to 96 °C,"CON(CCCc1c(Cl)cc(Cl)cc1Cl)C(=O)c1cn(C)nc1C(F)F [Compound 2.040, 3-difluoromethyl-1-methyl-1H-pyrazole-4-carboxylic acid methoxy-[3-(2,4,6-trichloro-phenyl)-propyl]-amide]"
